Data: patent US20220324865A1 (Bayer Aktiengesellschaft, priority 2018, published 2022)

target: T1, human EP3 receptor (Homo sapiens, UniProt P43115); experiment: Cellular in vitro assay for determining EP3 receptor activity (human EP3 cell line, sulprostone-stimulated calcium luminescence); assay type: cell-based; settings: CHO cells expressing human EP3 and mitochondrial Clytin; antagonist mode, sulprostone at EC50; read-out: EP3 CHO mtCLY ANTAG IC50
T1 construct: expressed in transfected cells; host or cells: CHO K1 (Chinese Hamster Ovary), stably co-transfected with Galpha16 and mitochondrial clytin
T1 sequence (P43115 1-390): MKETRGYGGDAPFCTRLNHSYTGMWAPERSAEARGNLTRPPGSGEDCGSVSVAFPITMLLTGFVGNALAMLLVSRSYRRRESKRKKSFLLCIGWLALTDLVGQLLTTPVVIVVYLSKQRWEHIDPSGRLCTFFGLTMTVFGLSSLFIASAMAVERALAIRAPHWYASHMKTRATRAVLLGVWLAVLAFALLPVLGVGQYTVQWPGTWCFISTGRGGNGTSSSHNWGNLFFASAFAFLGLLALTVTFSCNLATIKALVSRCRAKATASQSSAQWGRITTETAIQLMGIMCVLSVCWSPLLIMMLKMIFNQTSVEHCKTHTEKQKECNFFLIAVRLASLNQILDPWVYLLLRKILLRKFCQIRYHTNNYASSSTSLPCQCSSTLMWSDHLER
Method in brief: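 Antagonist activity was measured as inhibition of the luminescent calcium signal elicited by EC50 sulprostone, following 10 min compound pretreatment. The cell line was recombinant CHO K1 co-expressing human EP3, Gα16 and the photoprotein Clytin, reconstituted with coelenterazine.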

| Compound | IC50 |
| --- | --- |
| COc1ccc(C(CCO)NC(=O)c2cc3c(=O)[nH]c(-c4ccc5c(c4)OCCO5)cn3n2)cc1 (stereo not shown) [Example 5-3, 6-(2,3-Dihydro-1,4-benzodioxin-6-yl)-N-[3-hydroxy-1-(4-methoxyphenyl)propyl]-4-oxo-5H-pyrazolo[1,5-a]pyrazine-2-carboxamide] | 2.45 nM |
| Cc1cc(-c2cn3nc(C(=O)NC(c4ccc(F)cc4)C4(O)CC4)c(C4CC4)c3c(=O)[nH]2)ccc1F (racemic) [6-650] | 1.55 nM |
| Cc1ccc(-c2cn3nc(C(=O)NCC(O)(C(F)(F)F)C(F)(F)F)c(C4CC4)c3c(=O)[nH]2)cc1C [6-434] | 1.95 nM |
| N#Cc1c(C(=O)NC(CO)c2cc(Cl)cc(Cl)c2)nn2cc(-c3ccc4ccccc4c3)[nH]c(=O)c12 (stereo not shown) [Example 3-76, 3-Cyano-N-[1-(3,5-dichlorophenyl)-2-hydroxyethyl]-6-(2-naphthyl)-4-oxo-5H-pyrazolo[1,5-a]pyrazine-2-carboxamide] | 4.35 nM |
| CCc1ccc(C(C)NC(=O)c2nn3c(C)c(-c4ccc5ccccc5c4)[nH]c(=O)c3c2C)cc1 (stereo not shown) [Example 3-26, N-[1-(4-Ethylphenyl)ethyl]-3,7-dimethyl-6-(2-naphthyl)-4-oxo-5H-pyrazolo[1,5-a]pyrazine-2-carboxamide] | 4.15 nM |
| Cc1ccc(-c2cn3nc(C(=O)NCCN(CC(F)F)C4CC4)c(C4CC4)c3c(=O)[nH]2)cc1F [6-379] | 1.8 nM |
| Cc1cc(-c2cn3nc(C(=O)NC(C)c4ccccc4OC(F)F)cc3c(=O)[nH]2)ccc1C(F)(F)F (stereo not shown) [6-33] | 8.15 nM |
| O=C(NC1(c2ccc(F)cc2)CC1)c1cc2c(=O)[nH]c(-c3ccc4c(c3)OCCO4)cn2n1 [6-23] | 3.1 nM |
| CC(C)c1c(C(=O)NC2(c3ccc(F)cc3)CN(C)C2)nn2cc(-c3ccc(Cl)c(F)c3)[nH]c(=O)c12 [6-538] | 2.77 nM |
| CC(NC(=O)c1nn2cc(-c3ccc4ccccc4c3)[nH]c(=O)c2c1C#N)c1ccc(Cl)c(Cl)c1 (stereo not shown) [Example 3-54, 3-Cyano-N-[1-(3,4-dichlorophenyl)ethyl]-6-(2-naphthyl)-4-oxo-5H-pyrazolo[1,5-a]pyrazine-2-carboxamide] | 6.95 nM |
| Cc1cc(-c2cn3nc(C(=O)NC(C)C4CCC4)c(C4CC4)c3c(=O)[nH]2)ccc1Cl (single isomer, unassigned) [6-299] | 4.4 nM |
| COc1ccc(C2(NC(=O)c3nn4cc(-c5ccc(C)c(C)c5)[nH]c(=O)c4c3C3CC3)CN(C)C2)cc1 [6-427] | 5.15 nM |
| CC(C)c1c(C(=O)N[C@@H](C)C2CC2)nn2cc(-c3ccc(Cl)c(F)c3)[nH]c(=O)c12 [6-539] | 3.3 nM |
| Cc1ccc(-c2cn3nc(C(=O)NC4(c5ccc(F)cc5)CN(C)C4)c(C(F)(F)F)c3c(=O)[nH]2)cc1C [Example 1-93, 6-(3,4-Dimethylphenyl)-N-[3-(4-fluorophenyl)-1-methylazetidin-3-yl]-4-oxo-3-(trifluoromethyl)-4,5-dihydropyrazolo[1,5-a]pyrazine-2-carboxamide] | 3.58 nM |
| Cc1cc(-c2cn3nc(C(=O)NCCN(CC(F)F)C4CC4)c(C4CC4)c3c(=O)[nH]2)ccc1C(F)(F)F [6-128] | 9.25 nM |
| COc1ccc(C(CCO)NC(=O)c2cc3c(=O)[nH]c(-c4ccc(C(F)(F)F)c(C)c4)cn3n2)cc1 (stereo not shown) [6-31] | 8.03 nM |
| CC(NC(=O)c1cc2c(=O)[nH]c(-c3ccc4ccccc4c3)cn2n1)c1ccc(O)cc1 (single isomer, unassigned) [6-542] | 10.5 nM |
| CC(NC(=O)c1cc2c(=O)[nH]c(-c3ccc4ccccc4c3)cn2n1)c1ccc(S(N)(=O)=O)cc1 (stereo not shown) [Example 2-37, 6-(2-Naphthyl)-4-oxo-N-[1-(4-sulfamoylphenyl)ethyl]-4,5-dihydropyrazolo[1,5-a]pyrazine-2-carboxamide] | 4.5 nM |

Stronger by IC50, values ahead:

| IC50 | Compound |
| --- | --- |
| 1.5 nM | Cc1ccc(-c2cn3nc(C(=O)NC(C)(C)C4CC4)c(C4CC4)c3c(=O)[nH]2)cc1Cl [6-280] |
| 0.64 nM | Cc1ccc(-c2cn3nc(C(=O)NCC(O)C(F)(F)F)c(C4CC4)c3c(=O)[nH]2)cc1Cl (single isomer, unassigned) [6-259] |
| 0.575 nM | O=C(N[C@H](CCO)c1ccc(F)cc1)c1nn2cc(-c3ccc4ccccc4c3)[nH]c(=O)c2c1C(F)(F)F [Example 1-17, N-[(1R)-1-(4-Fluorophenyl)-3-hydroxpropyl]-6-(naphthalen-2-yl)-4-oxo-3-(trifluoromethyl)-4,5-dihydropyrazolo[1,5-a]pyrazine-2-carboxamide] |
| 1.3 nM | O=C(NC(c1cccc(F)c1)C(F)F)c1cc2c(=O)[nH]c(-c3ccc4ccccc4c3)cn2n1 (stereo not shown) [Example 2-13, N-[2,2-Difluoro-1-(3-fluorophenyl)ethyl]-6-(2-naphthyl)-4-oxo-4,5-dihydropyrazolo[1,5-a]pyrazine-2-carboxamide] |
| 1.05 nM | Cc1cccc2ncc(-c3cn4nc(C(=O)NC(C)CC5CC5)c(C(C)C)c4c(=O)[nH]3)cc12 (stereo not shown) [Example 4-18, N-(1-Cyclopropylpropan-2-yl)-3-isopropyl-6-(5-methylquinolin-3-yl)-4-oxo-4,5-dihydropyrazolo[1,5-a]pyrazine-2-carboxamide] |
| 0.443 nM | Cc1ccc(-c2cn3nc(C(=O)N[C@H](CCO)c4ccc(F)cc4)c(Cl)c3c(=O)[nH]2)cc1C [Example 1-63, 3-Chloro-6-(3,4-dimethylphenyl)-N-[(1R)-1-(4-fluorophenyl)-3-hydroxypropyl]-4-oxo-4,5-dihydropyrazolo[1,5-a]pyrazine-2-carboxamide] |
| 1.2 nM | Cc1cccc2ncc(-c3cn4nc(C(=O)N[C@H](C)c5ccccc5)c(C(C)C)c4c(=O)[nH]3)cc12 [Example 4-27, 6-(5-Methylquinolin-3-yl)-4-oxo-N-[(1R)-1-phenylethyl]-3-(propan-2-yl)-4,5-dihydropyrazolo[1,5-a]pyrazine-2-carboxamide] |
| 1.33 nM | Cc1ccc(-c2cn3nc(C(=O)N[C@@H](c4ccc(F)cc4)C(C)(C)O)c(C)c3c(=O)[nH]2)cc1Cl [Example 1-148, 6-(3-Chloro-4-methylphenyl)-N-[(1S)-1-(4-fluorophenyl)-2-hydroxy-2-methylpropyl]-3-methyl-4-oxo-4,5-dihydropyrazolo[1,5-a]pyrazine-2-carboxamide] |
| 0.815 nM | Cc1cccc2ncc(-c3cn4nc(C(=O)NCc5ccnn5C)c(C(C)C)c4c(=O)[nH]3)cc12 [Example 4-22, N-[(1-Methyl-1H-pyrazol-5-yl)methyl]-6-(5-methylquinolin-3-yl)-4-oxo-3-(propan-2-yl)-4,5-dihydropyrazolo[1,5-a]pyrazine-2-carboxamide] |
| 1.16 nM | COc1ccc(C(C)NC(=O)c2nn3cc(-c4cnc5cccc(C)c5c4)[nH]c(=O)c3c2C(C)C)cn1 (stereo not shown) [Example 4-6, 3-Isopropyl-N-[1-(6-methoxy-3-pyridyl)ethyl]-6-(5-methyl-3-quinolyl)-4-oxo-5H-pyrazolo[1,5-a]pyrazine-2-carboxamide] |
| 1.28 nM | COc1ccc(C2(NC(=O)c3cc4c(=O)[nH]c(-c5ccc6ccccc6c5)cn4n3)CN(C(=O)OC(C)(C)C)C2)cn1 [Example 1-6, tert.-Butyl 3-(6-methoxypyridin-3-yl)-3-({[6-(naphthalen-2-yl)-4-oxo-4,5-dihydropyrazolo[1,5-a]-pyrazin-2-yl]carbonyl}amino)azetidine-1-carboxylate] |
| 1.13 nM | Cc1cc(-c2cn3nc(C(=O)NCCC(O)C(F)(F)F)c(C4CC4)c3c(=O)[nH]2)ccc1Cl (racemic) [6-309] |
| 1.5 nM | Cc1ccc(-c2cn3nc(C(=O)NC4(c5ccc(F)cc5)CN(C5CC5)C4)c(C(F)(F)F)c3c(=O)[nH]2)cc1Cl [6-203] |
